Data as given in patent US9714247B2, “Multiple kinase pathway inhibitors” (Mannkind Corporation, priority 2012, dated 2017).

What was measured:
[1] = test system: DoHH2; experiment: CellTiter-Glo proliferation/viability assay; type: cell-based, human; conditions: Homo sapiens, DOHH-2; Table 10; B Lymphoma; read-out: Effect on Tumor Cell Growth EC50, DOHH2
[2] = test system: Ramos; experiment: CellTiter-Glo proliferation/viability assay; type: cell-based, human; conditions: Homo sapiens, Ramos; Table 10; B Lymphoma; read-out: Effect on Tumor Cell Growth EC50, Ramos
[3] = test system: SuDHL6; experiment: Proliferation/viability assay; type: cell-based; conditions: Homo sapiens, SU-DHL-6; Table 10; B Lymphoma; read-out: Effect on Tumor Cell Growth EC50, SuDHL6
[4] = test system: RPMI8226; experiment: Proliferation/viability assay; type: cell-based; conditions: Homo sapiens, RPMI-8226; Table 10; Myeloma; read-out: Effect on Tumor Cell Growth EC50, RPMI 8226
[5] = test system: PC3; experiment: Proliferation/viability assay; type: cell-based; conditions: Homo sapiens, PC-3; Table 10; Prostate Ca; read-out: Effect on Tumor Cell Growth EC50, PC3
[6] = test system: DoHH2; conditions: cited from earlier work
[7] = test system: Ramos; conditions: cited from earlier work

EC50 [2]: > 10 µM
EC50 [3]: 5.5 µM
EC50 [4]: > 10 µM
EC50 [5]: > 10 µM
Compound: C=CC(=O)N1CCC[C@@H](n2nc(-c3ccc(Oc4ccccc4)cc3)c3c(N)ncnc32)C1 [PCI-32765, ibrutinib]
EC50 [1]: 2.8 µM
Response of DoHH2 to known drugs [6]: responds
Resistance of Ramos to known kinase inhibitors [7]: resistant
